Assay results as given in patent US20220324835A1 (Nurix Therapeutics, Inc., priority 2018, published 2022).

How the values were obtained:
[1] = molecular target: T1, Cbl-b (Homo sapiens, UniProt Q13191); experiment: Cbl-b inhibition assay (Cbl-b activity assay, FRET, Biological Example 1; 100 mM NaCl, 60 nM Src kinase); format: biochemical
Outline: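 TR-FRET assay using N-terminal biotinylated Avi-tagged Cbl-b bound to streptavidin-terbium, Src kinase for Cbl-b phosphorylation, and UbcH5B irreversibly conjugated to Bodipy-Fluorescein-ubiquitin. Phosphorylated Cbl-b binds UbcH5B-Ub, bringing the fluorophores together; inhibition is read as loss of FRET signal.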

[2] = tested on: T-cell; experiment: IL-2 secretion from T-cells co-stimulated with anti-CD3 and anti-CD28 antibody (Biological Example 2); format: cell-based, human; settings: Homo sapiens, T-cell; for fold induction at 4 µM: 4 μM Cbl-b inhibitor
Outline: (§1)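 Values are fold-change over baseline: readings (IL-2 release, CD25 staining) from inhibitor-treated T-cells divided against untreated cells […]. No detailed procedure stated.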

[3] = tested on: T-cell; experiment: IL-2 secretion from T-cells stimulated with anti-CD3 antibody alone (Biological Example 2); format: cell-based, human; settings: T-cell; for fold induction at 8 µM: 8 μM Cbl-b inhibitor
[4] = tested on: T-cell; experiment: CD25 cell surface staining on T-cells co-stimulated with anti-CD3 and anti-CD28 antibody (Biological Example 2); format: cell-based, human; settings: Homo sapiens, T-cell; for fold induction at 4 µM: 4 μM Cbl-b inhibitor
Outline: as §1

[5] = tested on: T-cell; experiment: CD25 cell surface staining on T-cells stimulated with anti-CD3 antibody alone (Biological Example 2); format: cell-based, human; settings: T-cell; for fold induction at 8 µM: 8 μM Cbl-b inhibitor
[6] = molecular target: T1, Cbl-b; experiment: Cbl-b activity assay (Cbl-b inhibition assay), TR-FRET of Cbl-b interaction with UbcH5B-Ub; format: biochemical
Outline: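 Compound-treated Cbl-b was incubated 1.5 h with Src kinase (60 nM final; 30 nM for asterisked values, which also used 50 mM instead of 100 mM NaCl), 1 mM ATP and 5 mM MgCl2. Binding to fluorescent Ub-loaded UbcH5B (C85K mutant) was then read by TR-FRET after 1 h more.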

[7] = upper bound stated in text lists, read-out: IC50 values in the Cbl-b inhibition assay of Biological Example 1
[8] = 0.3 μM Cbl-b inhibitor, fold change over baseline (anti-CD3/anti-CD28 stimulated T-cells without inhibitor), read-out: IL-2 secretion Anti-CD3/Anti-CD28 stimulation
[9] = 1 μM Cbl-b inhibitor, fold change over baseline (anti-CD3/anti-CD28 stimulated T-cells without inhibitor), read-out: IL-2 secretion Anti-CD3/Anti-CD28 stimulation
[10] = Homo sapiens, 1 μM Cbl-b inhibitor, fold change over baseline (anti-CD3/anti-CD28 stimulated T-cells without inhibitor), read-out: IL-2 secretion Anti-CD3 stimulation
[11] = 0.3 μM Cbl-b inhibitor, fold change over baseline (anti-CD3/anti-CD28 stimulated T-cells without inhibitor), read-out: CD25 staining Anti-CD3/Anti-CD28 stimulation
[12] = 1 μM Cbl-b inhibitor, fold change over baseline (anti-CD3/anti-CD28 stimulated T-cells without inhibitor), read-out: CD25 staining Anti-CD3/Anti-CD28 stimulation
[13] = Homo sapiens, 1 μM Cbl-b inhibitor, fold change over baseline (anti-CD3/anti-CD28 stimulated T-cells without inhibitor), read-out: CD25 staining Anti-CD3 stimulation
[14] = assay buffer with 100 mM NaCl, 60 nM Src kinase, read-out: Cbl-b activity IC50
[15] = fold change over baseline, 0.3 μM Cbl-b inhibitor, primary human total T-cells, read-out: IL-2 secretion Anti-CD3/Anti-CD28 stimulation
[16] = fold change over baseline, 1 μM Cbl-b inhibitor, primary human total T-cells, read-out: IL-2 secretion Anti-CD3/Anti-CD28 stimulation
[17] = fold change over baseline, primary human total T-cells, read-out: IL-2 secretion Anti-CD3/Anti-CD28 stimulation
[18] = fold change over baseline, 1 μM Cbl-b inhibitor, primary human total T-cells, read-out: IL-2 secretion Anti-CD3 stimulation
[19] = fold change over baseline, primary human total T-cells, read-out: IL-2 secretion Anti-CD3 stimulation
[20] = fold change over baseline, 0.3 μM Cbl-b inhibitor, primary human total T-cells, read-out: CD25 staining Anti-CD3/Anti-CD28 stimulation
[21] = fold change over baseline, 1 μM Cbl-b inhibitor, primary human total T-cells, read-out: CD25 staining Anti-CD3/Anti-CD28 stimulation
[22] = fold change over baseline, primary human total T-cells, read-out: CD25 staining Anti-CD3/Anti-CD28 stimulation
[23] = fold change over baseline, 1 μM Cbl-b inhibitor, primary human total T-cells, read-out: CD25 staining Anti-CD3 stimulation
[24] = fold change over baseline, primary human total T-cells, read-out: CD25 staining Anti-CD3 stimulation
[25] = read-out: IL-2 secretion, Anti-CD3/Anti-CD28 stimulation, fold change over baseline
[26] = read-out: CD25 staining, Anti-CD3/Anti-CD28 stimulation, fold change over baseline

T1 sequence (Q13191 36-427): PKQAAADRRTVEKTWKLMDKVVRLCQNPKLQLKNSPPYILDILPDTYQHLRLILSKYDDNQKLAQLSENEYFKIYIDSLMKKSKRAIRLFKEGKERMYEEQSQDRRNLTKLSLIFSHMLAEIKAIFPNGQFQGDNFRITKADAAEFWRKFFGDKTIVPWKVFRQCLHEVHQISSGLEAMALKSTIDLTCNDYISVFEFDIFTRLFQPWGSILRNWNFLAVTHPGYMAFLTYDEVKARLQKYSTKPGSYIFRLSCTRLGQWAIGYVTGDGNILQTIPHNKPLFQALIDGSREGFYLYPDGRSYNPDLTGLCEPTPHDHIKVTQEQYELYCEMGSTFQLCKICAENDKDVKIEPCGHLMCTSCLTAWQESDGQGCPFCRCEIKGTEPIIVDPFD

| SMILES | IC50 [1, 7] [nM] | fold induction at 0.3 µM [2, 8] | fold induction at 1 µM [2, 9] | fold induction at 1 µM [3, 10] | fold induction at 0.3 µM [4, 11] | fold induction at 1 µM [4, 12] | fold induction at 1 µM [5, 13] | IC50 [6, 14] [µM] | also measured |
| --- | --- | --- | --- | --- | --- | --- | --- | --- | --- |
| Cn1cnnc1[C@H](F)C1(c2cccc(N3Cc4c(cc(CN5[C@@H]6CC[C@H]5C[C@@H](F)C6)cc4C(F)(F)F)C3=O)c2)COC1 [Example 672b, 2-(3-(3-((R)-fluoro(4-methyl-4H-1,2,4-triazol-3-yl)methyl)oxetan-3-yl)phenyl)-6-(((1R,3R,5S)-3-fluoro-8-azabicyclo[3.2.1]octan-8-yl)methyl)-4-(trifluoromethyl)isoindolin-1-one] | ≤ 100 | > 7.5 | > 7.5 | > 0.201 | > 1.76 | > 1.76 | > 1 | < 0.1 |  |
| Cn1cnnc1CC1(c2cccc(N3Cc4c(cc(C5CC5)nc4C4CC4)C3=O)c2)COC1 [Example 568, 4,6-Dicyclopropyl-2-(3-(3-((4-methyl-4H-1,2,4-triazol-3-yl)methyl)oxetan-3-yl)phenyl)-2,3-dihydro-1H-pyrrolo[3,4-c]pyridin-1-one] | ≤ 100 | 1.01 to 2.5 | 1.01 to 2.5 | 0.101 to 0.15 | 1.01 to 1.3 | 1.01 to 1.3 | 0.801 to 1 | < 0.1 |  |
| CC1CN(c2cc3c(c(C(F)(F)F)c2)CN(c2cccc(C4(Cc5nncn5C)COC4)c2)C3=O)C1C (stereo not shown) [Example 608, 6-(2,3-dimethylazetidin-1-yl)-2-(3-(3-((4-methyl-4H-1,2,4-triazol-3-yl)methyl)oxetan-3-yl)phenyl)-4-(trifluoromethyl)isoindolin-1-one] | ≤ 100 | 1.01 to 2.5 | 2.51 to 5 | 0.051 to 0.1 | 1.01 to 1.3 | 1.01 to 1.3 | 0.601 to 0.8 | < 0.1 |  |
| C[C@H](Cc1nncn1C)c1cc(N[C@@H]2CC[C@@H]2O)nc(N2Cc3c(cccc3C(F)(F)F)C2=O)c1 [Example 689a, 2-(6-(((1R,2S)-2-hydroxycyclobutyl)amino)-4-((R)-1-(4-methyl-4H-1,2,4-triazol-3-yl)propan-2-yl)pyridin-2-yl)-4-(trifluoromethyl)isoindolin-1-one] | ≤ 1000 | 1.01 to 2.5 | 1.01 to 2.5 | < 0.05 | 1.01 to 1.3 | 1.01 to 1.3 | 0.601 to 0.8 | 0.301 to 1 |  |
| Cn1cnnc1CC1(c2cccc(NC(=O)c3ccnc4ccnn34)c2)COC1 [Example 605, N-(3-(3-((4-methyl-4H-1,2,4-triazol-3-yl)methyl)oxetan-3-yl)phenyl)pyrazolo[1,5-a]pyrimidine-7-carboxamide] | ≤ 300 | 1.01 to 2.5 | 2.51 to 5 | < 0.05 | 1.01 to 1.3 | 1.01 to 1.3 | 0.601 to 0.8 | 0.1 to 0.3 |  |
| Cn1cnnc1CC1(c2cccc(N3Cc4c(cc(N5CC(C(F)F)C5)cc4C(F)(F)F)C3=O)c2)COC1 [Example 594, 6-(3-(Difluoromethyl)azetidin-1-yl)-2-(3-(3-((4-methyl-4H-1,2,4-triazol-3-yl)methyl)oxetan-3-yl)phenyl)-4-(trifluoromethyl)isoindolin-1-one] | ≤ 100 | 2.51 to 5 | 5 to 7.5 | 0.051 to 0.1 | 1.01 to 1.3 | 1.01 to 1.3 | 0.801 to 1 | < 0.1 |  |
| COc1cccc(C(=O)Nc2cccc([C@H](C)Sc3nncn3C)c2)n1 [Compound 38, (S)-6-Methoxy-N-(3-(1-((4-methyl-4H-1,2,4-triazol-3-yl)thio)ethyl)phenyl)picolinamide] | ≤ 1000 |  |  |  |  |  |  | 0.301 to 1 | fold induction at 0.3 µM [2, 15]: 1.01 to 2.5; fold induction at 1 µM [2, 16]: 1.01 to 2.5; fold induction at 4 µM [2, 17]: 2.51 to 5; fold induction at 1 µM [3, 18]: 0.101 to 0.15; fold induction at 8 µM [3, 19]: 0.151 to 0.2; fold induction at 0.3 µM [4, 20]: < 1; fold induction at 1 µM [4, 21]: < 1; fold induction at 4 µM [4, 22]: 1.31 to 1.5; fold induction at 1 µM [5, 23]: < 0.6; fold induction at 8 µM [5, 24]: 0.601 to 0.8; IC50 ([6]; * assay buffer containing 50 mM NaCl instead of 100 mM NaCl and 30 nM Src kinase instead of 60 nM, read-out: Cbl-b activity IC50 (μM)*): 0.301 to 1 µM |
| C[C@@H](Cc1nncn1C)c1cccc(NC(=O)c2cc(C(=O)N3CC[C@H](O)C3)cc(C3CC3)n2)c1 [Compound 221, 6-Cyclopropyl-4-[(3S)-3-hydroxypyrrolidine-1-carbonyl]-N-[3-[(1S)-1-methyl-2-(4-methyl-1,2,4-triazol-3-yl)ethyl]phenyl]pyridine-2-carboxamide] | ≤ 1000 |  |  |  |  |  |  | 0.301 to 1 | fold induction at 0.3 µM [2, 15]: < 1; fold induction at 1 µM [2, 16]: < 1; fold induction at 4 µM [2, 17]: < 1; fold induction at 1 µM [3, 18]: 0.051 to 0.1; fold induction at 8 µM [3, 19]: 0.051 to 0.1; fold induction at 0.3 µM [4, 20]: 1.01 to 1.3; fold induction at 1 µM [4, 21]: 1.31 to 1.5; fold induction at 4 µM [4, 22]: 1.31 to 1.5; fold induction at 1 µM [5, 23]: < 0.6; fold induction at 8 µM [5, 24]: < 0.6 |
| Cn1cnnc1[C@@H](F)C1(c2cccc(N3Cc4c(cc(CN5[C@@H]6CC[C@H]5C[C@@H](F)C6)cc4C(F)(F)F)C3=O)c2)COC1 [Example 672a, 2-(3-(3-((S)-fluoro(4-methyl-4H-1,2,4-triazol-3-yl)methyl)oxetan-3-yl)-phenyl)-6-(((1R,3S,5S)-3-fluoro-8-azabicyclo[3.2.1]octan-8-yl)methyl)-4-(trifluoromethyl)isoindolin-1-one] | ≤ 100 | 2.51 to 5 | > 7.5 | > 0.201 | > 1.76 | > 1.76 | 0.801 to 1 | < 0.1 |  |
| Cn1cnnc1CC1(c2cccc(NC(=O)c3nc(C(F)(F)F)cs3)c2)COC1 [Compound 495, N-(3-{3-[(4-methyl-1,2,4-triazol-3-yl)methyl]oxetan-3-yl}phenyl)-4-(trifluoromethyl)-1,3-thiazole-2-carboxamide] |  |  |  |  |  |  |  |  | IC50 ([1]; IC50 values in the Cbl-b inhibition assay of Biological Example 1): ≤ 1000 nM; fold induction at 0.3 µM [2, 25]: 1.01 to 2.5; fold induction at 1 µM [2, 25]: 2.51 to 5; fold induction at 1 µM ([3]; Homo sapiens, read-out: IL-2 secretion, Anti-CD3 stimulation, fold change over baseline): < 0.05; fold induction at 0.3 µM [4, 26]: 1.01 to 1.3; fold induction at 1 µM [4, 26]: 1.01 to 1.3; fold induction at 1 µM ([5]; Homo sapiens, read-out: CD25 staining, Anti-CD3 stimulation, fold change over baseline): 0.601 to 0.8; IC50 ([6]; Cbl-b activity IC50 (μM), assay buffer with 100 mM NaCl, 60 nM Src kinase): 0.301 to 1 µM |
| Cn1cnnc1CC1(c2cccc(N3Cc4c(cc(N5CCNC6(CC6)C5)cc4C(F)(F)F)C3=O)c2)COC1 [Example 582, 2-(3-(3-((4-Methyl-4H-1,2,4-triazol-3-yl)methyl)oxetan-3-yl)phenyl)-6-(4,7-diazaspiro[2.5]octan-7-yl)-4-(trifluoromethyl)isoindolin-1-one] | ≤ 100 | > 7.5 | > 7.5 | 0.101 to 0.15 | 1.31 to 1.5 | 1.31 to 1.5 | > 1 | < 0.1 |  |
